Reference: article PMC6270209, “Synthesis, Antimycobacterial Activity and In Vitro Cytotoxicity of 5-Chloro-N-phenylpyrazine-2-carboxamides” (Molecules, 2013)
≈ marks a conversion by molar mass, not a printed value. Like-named read-outs stand apart in the source and are kept apart here.

Experiments:
[1] = tested on: M. avium CNCTC My 152/73; experiment: In vitro antimycobacterial activity, microdilution panel method (MIC); format: cell-based, Mycobacterium avium; conditions: for MIC: Mycobacterium avium
[2] = in vitro; conditions: human
[3] = tested on: M. avium ssp. avium Chester CNCTC My 80/72; experiment: In vitro antimycobacterial activity, microdilution panel method (MIC); format: cell-based, Mycobacterium avium; conditions: for MIC: Mycobacterium avium
[4] = tested on: HepG2 cells; conditions: for Cytotoxicity SI: SI calculated for M. tbc as IC50 (HepG2)/MIC (in μM) using the lower MIC values (Table 1); for IC50: read-out: Cytotoxicity IC50, HepG2 cells, 24 h incubation (Table 1)
[5] = tested on: M. tuberculosis H37Rv CNCTC My 331/88; experiment: In vitro antimycobacterial activity, microdilution panel method (MIC); format: cell-based, Mycobacterium tuberculosis; conditions: for MIC: Mycobacterium tuberculosis, H37RV
[6] = tested on: M. kansasii Hauduroy CNCTC My 235/80; experiment: as above; format: cell-based, Mycobacterium kansasii; conditions: for MIC: Mycobacterium kansasii; for MIC / Antimycobacterial activity MIC, M. kansasii: M. kansasii Hauduroy CNCTC My 235/80
[7] = RP-HPLC, C18, MeOH 70% / H2O 30%, 30 °C
[8] = M. tuberculosis H37Rv, retest with extended dilution scale up to 0.39 µg/mL, read-out: Antimycobacterial activity MIC, M. tbc (confirmation retest, value in parentheses)
[9] = pH 5.6, M. tuberculosis H37Rv, primary test, dilution scale 100–[…], Šula's medium pH 5.6, read-out: Antimycobacterial activity MIC, M. tbc
[10] = M. tuberculosis H37Rv, primary test, dilution scale 100–[…], Šula's medium pH 5.6
[11] = M. tuberculosis H37Rv, retest with extended dilution scale up to 0.39 µg/mL

| SMILES | MIC [1] [µg/mL] | IC50 [2] [µM] | MIC [3] [µg/mL] | Cytotoxicity SI [4] | MIC [5, 8] [µg/mL] | MIC [5, 9] [µg/mL] | Activity against M. kansasii (in words) [6] | MIC [6] [µg/mL] | Antimycobacterial activity MIC, M. avium [1] [µg/mL] | Antimycobacterial activity MIC, M. kansasii [6] [µg/mL] | Antimycobacterial activity MIC, M. avium [3] [µg/mL] | Antimycobacterial activity MIC, M. tbc [5, 10] [µg/mL] | Lipophilicity logk [7] | IC50 [4] [µM] | Antimycobacterial activity MIC, M. tbc (confirmation retest, value in parentheses) [5, 11] [µg/mL] | Antimycobacterial activity against M. tbc H37Rv (in words) [5] |
| --- | --- | --- | --- | --- | --- | --- | --- | --- | --- | --- | --- | --- | --- | --- | --- | --- |
| O=C(Nc1ccccc1O)c1cnc(Cl)cn1 [Compound 2, 5-Chloro-N-(2-hydroxyphenyl)pyrazine-2-carboxamide] | > 100 | 30 | > 100 | 2.39 | 0.78 (≈ 3.12 µM) | 3.13 (≈ 12.5 µM) |  |  |  |  |  |  |  |  |  |  |
| O=C(Nc1cccc(O)c1)c1cnc(Cl)cn1 [Compound 3, 5-Chloro-N-(3-hydroxyphenyl)pyrazine-2-carboxamide] | 100 (≈ 401 µM) | 32.1 | > 100 | 1.28 |  | 6.25 (≈ 25 µM) | inactive | 50 (≈ 200 µM) |  |  |  |  |  |  |  |  |
| Cc1ccc(C)c(NC(=O)c2cnc(Cl)cn2)c1 [Compound 6, 5-Chloro-N-(2,5-dimethylphenyl)pyrazine-2-carboxamide] | > 100 | 11.7 | > 100 | 1.96 | 1.56 (≈ 5.96 µM) | 1.56 (≈ 5.96 µM) |  | > 100 |  |  |  |  |  |  |  |  |
| CCc1ccc(NC(=O)c2cnc(Cl)cn2)cc1 [Compound 7, 5-Chloro-N-(4-ethylphenyl)pyrazine-2-carboxamide] | > 100 | 7.17 | > 100 | 2.41 | 0.78 (≈ 2.98 µM) | 1.56 (≈ 5.96 µM) |  |  |  |  |  |  |  |  |  |  |
| CC(C)c1ccc(NC(=O)c2cnc(Cl)cn2)cc1 [Compound 8, 5-Chloro-N-(4-isopropylphenyl)pyrazine-2-carboxamide] | > 100 | 14.4 | > 100 | 2.55 |  | 1.56 (≈ 5.66 µM) |  |  |  |  |  |  |  |  |  |  |
| O=C(Nc1ccccc1F)c1cnc(Cl)cn1 [Compound 9] |  |  |  |  |  |  |  |  | >100 | 12.5 | >100 | 6.25 | 0.490 |  |  |  |
| O=C(Nc1cccc(F)c1)c1cnc(Cl)cn1 [Compound 10, 5-Chloro-N-(3-fluorophenyl)pyrazine-2-carboxamide] | > 100 |  | > 100 |  |  | 6.25 (≈ 24.8 µM) |  | 12.5 (≈ 49.7 µM) |  |  |  |  |  |  |  |  |
| O=C(Nc1ccc(F)cc1F)c1cnc(Cl)cn1 [Compound 11, 5-Chloro-N-(2,4-difluorophenyl)pyrazine-2-carboxamide] | > 50 |  | > 50 |  |  | 3.13 (≈ 11.6 µM) |  | 6.25 (≈ 23.2 µM) |  |  |  |  |  |  |  |  |
| O=C(Nc1ccccc1Cl)c1cnc(Cl)cn1 [Compound 12] |  |  |  | 0.58 |  |  |  |  | >100 |  | >100 | 3.13 | 0.819 | 6.72 | 0.78 |  |
| O=C(Nc1cccc(Cl)c1)c1cnc(Cl)cn1 [Compound 13] |  |  |  |  |  |  |  |  | 25 | 25 | 25 | 6.25 | 0.587 |  | 3.13 |  |
| O=C(Nc1ccc(Cl)c(Cl)c1)c1cnc(Cl)cn1 [Compound 14, 5-Chloro-N-(3,4-dichlorophenyl)pyrazine-2-carboxamide] | > 100 | 9.1 | > 100 | 0.88 |  | 3.13 (≈ 10.3 µM) |  | > 100 |  |  |  |  |  |  |  |  |
| O=C(Nc1cccc(Br)c1)c1cnc(Cl)cn1 [Compound 16, 5-Chloro-N-(3-bromophenyl)pyrazine-2-carboxamide] | > 100 |  | > 100 |  |  | 25 (≈ 80 µM) |  | 25 (≈ 80 µM) |  |  |  |  |  |  |  |  |
| O=C(Nc1ccc(Br)cc1)c1cnc(Cl)cn1 [Compound 17] |  |  |  |  |  |  |  |  | >100 | 6.25 | >100 | 3.13 | 0.660 |  |  |  |
| Cc1ccc(F)cc1NC(=O)c1cnc(Cl)cn1 [Compound 19, 5-Chloro-N-(5-fluoro-2-methylphenyl)pyrazine-2-carboxamide] | > 100 |  | > 100 |  | 6.25 (≈ 23.5 µM) | 3.13 (≈ 11.8 µM) |  | 25 (≈ 94.1 µM) |  |  |  |  |  |  |  |  |
| Cc1ccc(Cl)c(NC(=O)c2cnc(Cl)cn2)c1 [Compound 20, 5-Chloro-N-(2-chloro-5-methylphenyl)pyrazine-2-carboxamide] | > 100 | 15.8 | > 100 | 2.86 |  | 1.56 (≈ 5.53 µM) |  | 25 (≈ 88.6 µM) |  |  |  |  |  |  |  |  |
| O=C(Nc1ccc(O)c(Cl)c1)c1cnc(Cl)cn1 [Compound 22, 5-Chloro-N-(3-chloro-4-hydroxyphenyl)pyrazine-2-carboxamide] | 25 (≈ 88 µM) | 12.9 | 50 (≈ 176 µM) | 1.17 | 0.39 (≈ 1.37 µM) | 3.13 (≈ 11 µM) |  | > 100 |  |  |  |  |  |  |  |  |
| O=C(Nc1cc([N+](=O)[O-])ccc1O)c1cnc(Cl)cn1 [Compound 23, 5-Chloro-N-(2-hydroxy-5-nitrophenyl)pyrazine-2-carboxamide] | 50 (≈ 170 µM) | 1.52 | 50 (≈ 170 µM) | 0.29 | 1.56 (≈ 5.29 µM) | 1.56 (≈ 5.29 µM) |  |  |  |  |  |  |  |  |  |  |
| O=C(Nc1ccccc1[N+](=O)[O-])c1cnc(Cl)cn1 [Compound 24, 5-Chloro-N-(2-nitrophenyl)pyrazine-2-carboxamide] | > 100 |  | > 100 |  |  | 12.5 (≈ 44.9 µM) |  |  |  |  |  |  |  |  |  |  |
| O=C(Nc1cccc([N+](=O)[O-])c1)c1cnc(Cl)cn1 [Compound 25] |  |  |  | 2.91 |  |  |  |  | >100 |  | >100 | 3.13 | 0.344 | 32.7 |  |  |
| N#Cc1cccc(NC(=O)c2cnc(Cl)cn2)c1 [Compound 26, 5-Chloro-N-(3-cyanophenyl)pyrazine-2-carboxamide] | > 50 |  | > 50 |  |  | 25 (≈ 96.6 µM) |  | 3.13 (≈ 12.1 µM) |  | ≤ 6.25 |  |  |  |  |  | low activity |
| N#Cc1ccc(NC(=O)c2cnc(Cl)cn2)cc1 [Compound 27, 5-Chloro-N-(4-cyanophenyl)pyrazine-2-carboxamide] | > 100 |  | > 100 |  |  | > 100 |  | > 100 |  |  |  |  |  |  |  | inactive |
| O=C(Nc1cccc(C(F)(F)F)c1)c1cnc(Cl)cn1 [Compound 28, 5-Chloro-N-(3-(trifluoromethyl)phenyl)pyrazine-2-carboxamide] | > 100 | 41.4 | > 100 | 3.99 | 6.25 (≈ 20.7 µM) | 3.13 (≈ 10.4 µM) |  | 12.5 (≈ 41.4 µM) |  |  |  |  |  |  |  |  |
| O=C(Nc1ccc(C(F)(F)F)cc1)c1cnc(Cl)cn1 [Compound 29, 5-Chloro-N-(4-(trifluoromethyl)phenyl)pyrazine-2-carboxamide] | > 100 | 8.5 | > 100 | 1.64 | 3.13 (≈ 10.4 µM) | 1.56 (≈ 5.17 µM) |  | 12.5 (≈ 41.4 µM) |  |  |  |  |  |  |  |  |
